Experimental data as given in patent US20090137565A1, “Method for treatment of movement disorders” (The Trustees of Columbia University in the City of New York, priority 2004, published 2009).

Tested on: medication-refractory, ethanol-responsive myoclonus (PHM, MD, PME)
Test: Twenty-patient open-label trial of sodium oxybate, blinded UMRS (myoclonus patients)
Assay type: in vivo, human
Conditions: for Stim-sens. myoclonus score: dose 0 score 5.8; for Functional performance score: dose 0 score 12.9; for Action myoclonus score: dose 0 score 45.3; for Myoclonus at rest score: dose 0 score 7.4
Text: Twenty patients age 18 or older were recruited from a clinical practice at the Movement Disorders Division of Columbia University Medical Center. Eligible patients with medication-refractory, ethanol-responsive myoclonus (6 PHM, 3 MD, 2 PME) or ET (9 patients) (Table 1) were offered enrollment from February 2004 to March 2005. The medical center's institutional review board approved the protocol, and written informed consent was obtained from all participants. All had myoclonus or ET that improved (by self-report) with ingestion of ethanol. All patients were medication-refractory, defined as obtaining inadequate benefit from best medical treatment or being unable to tolerate treatment. The dose and timing of other medications were kept constant before and during the trial.
Twelve men and 8 women enrolled. Results from patients #6, and #s 1, 2, 7, 12, and 13 were reported previously. Frucht, S. J., et al. Mov Disord 20:745-51 (2005); Frucht, S. J., et al. Mov Disord 20:1330-7 (2005). Mean age/symptom duration was 43.9 yrs/12.3 yrs (myoclonus) and 71.2 yrs/26.7 yrs (ET). Patients with myoclonus were examined and videotaped at each visit using the Unified Myoclonus Rating Scale (UMRS), and patients with ET were examined and videotaped using the modified Washington Heights Inwood Genetic Essential Tremor Rating Scale (WHIGET; Appendix 1). Frucht, S. J., et al. Mov Disord 20:1330-7 (2005). After initial baseline examination and videotaping, patients took 1 gm of sodium oxybate by mouth (2 ml of the standard 0.5 gm/ml solution dissolved in 60 ml of water), and one hour later the videotaped examination was repeated. Patients were maintained on a dose of 1 gm T.I.D. (taken before meals) until their next office visit two weeks later, when the examination and videotaping were repeated one hour after receiving 1.5 gm of sodium oxybate. Subsequent visits and dose titrations at two-week intervals were repeated until the maximum dose was reached (3 gm T.I.D), patients were satisfied with the results of treatment, or until they developed side effects that they viewed as troublesome. Dosing for patients #1, 2, 6, 7, 12, and 13 was slightly different (1 gm BID, with dose increments of 2 gm to maximum dose of 4 gm BID), but office visits and videotaping protocol were otherwise identical.
The entire videotape segments and writing samples from each visit were copied and randomly ordered, and identifying features that might reveal trial order or drug dose were removed. A blinded movement disorder neurologist scored each videotape segment using the UMRS or the WHIGET. Sub-scores for each visit were calculated as described previously. Frucht, S. J., et al. Mov Disord 20:1330-7 (2005). Based on data from the first two ET cases, and assuming alpha=0.05, power=80%, and a 25% reduction in post-treatment tremor severity, we calculated that eight ET cases were required. A similar number of myoclonus patients would provide >80% power to detect a 25% reduction in the severity of post-treatment action myoclonus. Paired t tests were performed for scores pre- and post-treatment.

In the case of `O=C([O-])CCCO.[Na+]` [GHB, 4-hydroxybutanoic acid monosodium salt], the Stim-sens. myoclonus score (1 gm, p 0.01**) is reported as 3.2 (0.01)**, the Functional performance score (1 gm, p 0.044*) is reported as 11.0 (0.044)* and the Action myoclonus score (1 gm, p 0.047*) is reported as 33.4 (0.047)*. For the same molecule, the Functional performance score (1.5 gm, p 0.007*) was 9.6 (0.007)*, the Stim-sens. myoclonus score (1.5 gm, p 0.11) was 3.2 (0.11) and the Action myoclonus score (1.5 gm, p 0.122) was 26.8 (0.122). For the same molecule, the “Myoclonus at rest score” value (1.5 gm, p 0.247) was 1.2 (0.247), the Stim-sens. myoclonus score (2 gm, p 0.001**) was 2.8 (0.001)** and the Action myoclonus score (2 gm, p 0.005*) was 30.9 (0.005)*. For the same molecule, the “Myoclonus at rest score” value (2 gm, p 0.047*) was 3.6 (0.047)*, the Functional performance score (2 gm, p <0.001**) was 6.0 (<0.001)** and the Functional performance score (2.5 gm, p 0.002**) was 7.4 (0.002)**. For the same molecule, the Action myoclonus score (2.5 gm, p 0.046*) was 26.2 (0.046)*, the “Myoclonus at rest score” value (2.5 gm, p 0.055) was 0.6 (0.055) and the Stim-sens. myoclonus score (2.5 gm, p <0.001**) was 1.4 (<0.001)**. For the same molecule, the Stim-sens. myoclonus score (3.0 gm, p 0.02*) was 1.0 (0.02)*, the Functional performance score (3.0 gm, p 0.059) was 6.9 (0.059) and the Action myoclonus score (3.0 gm, p 0.064) was 33.0 (0.064). The “Myoclonus at rest score” value (3.0 gm, p 0.129) was 0.75 (0.129), the “Myoclonus at rest score” value (individ. dose 1 gm, p 0.137 vs pre-treatment) was 4.9 (0.137) and the “dose of maximal improvement” value (myoclonus measures) was 2.5 gm. For the same molecule, the Myoclonus at rest (patient #3 (MD), after receiving 3 mg (so in the source)) was “disappeared”, the “stimulus-sensitive myoclonus to sound and pinprick” value (patient #4 (PME), after 3 gm) was “only stimulus-sensitive myoclonus of the right hand remained” and the “action myoclonus on finger-to-nose” value (patient #6 (PHM), standing unassisted now possible) was “significantly improved”. For the same molecule, the Myoclonus at rest (patient #11 (PHM), after receiving 2.5 mg (so in the source)) was “disappeared” and the “functional performance, using a soupspoon” value (patients #9 (PHM) and #5 (PME)) was “improved”.
